Experimental data from patent US20250235545A1, “POLYPEPTIDE CONJUGATE AND USE THEREOF” (SHANGHAI CHIXI BIOMEDICAL TECHNOLOGY CO., LTD, priority 2024, published 2025).
Converted amounts (≈) assume the structure as drawn. Like-named read-outs stand apart in the source and are kept apart here. Where a SMILES comes first, the peptide text is derived from it. The star is where a group is joined. X2 = CCCCN(CCc1c2c(nc3ccccc13)-c1cc3c(c(=O)n1C2)COC(=O)[C@]3(O)CC)*; X4 = CCCN(CCc1c2c(nc3ccccc13)-c1cc3c(c(=O)n1C2)COC(=O)[C@]3(O)CC)*; X5 = CC[C@@]1(O)C(=O)OCc2c1cc1n(c2=O)Cc2c-1nc1ccccc1c2CCN(CC(C)C)*; Propanoyl(3-maleimido) = O=C1C=CC(=O)N1CCC(=O)*; PEG6 = NCCOCCOCCOCCOCCOCCOCCC(=O)O

Experiments:
A2780 (ovarian cancer) = experiment: cells; assay type: cell-based; details: for IC50 Ovarian cancer tissue (A2780): CCK8, 48 h, Table 6
How it was run: (§1)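 Cells in RPMI1640 or high-glucose DMEM with 10% FBS, P/S and 1 mM sodium pyruvate were seeded at 5,000 cells/well into graded drug concentrations, with 0.1% DMSO controls, in triplicate. After 48 h at 37° C/5% CO2, CCK8 was added for about 2 h and absorbance read at 450 nm; survival and IC50 were calculated.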

[1] = system: A549 (non-small cell lung cancer); experiment: cells; assay type: cell-based; details: for IC50 Non-small cell lung cancer tissue (A549): CCK8, 48 h, Table 6
How it was run: as §1

SJSA-1 (sarcoma tissue) = experiment: cells; assay type: cell-based; details: for IC50 Sarcoma tissue (SJSA-1): CCK8, 48 h, Table 6
How it was run: as §1

[2] = system: SKBR3 (breast cancer tissue); experiment: cells; assay type: cell-based; details: for IC50 Breast cancer tissue (SKBR3): CCK8, 48 h, Table 6
How it was run: as §1

[3] = system: sarcoma SJSA-1 tumor model; experiment: Efficacy in animal model of sarcoma SJSA-1, 30 mg/kg once a week for two weeks (Example 40); assay type: in vivo, BALB/c mice; details: for SJSA-1 (sarcoma tissue) mean tumor volume (mm^3) Day 1 / SJSA-1 (sarcoma tissue) mean tumor volume (mm^3) Day 4 / SJSA-1 (sarcoma tissue) mean tumor volume (mm^3) Day 7 / SJSA-1 (sarcoma tissue) mean tumor volume (mm^3) Day 10 / Mouse weight (%) on Day 14 / SJSA-1 (sarcoma tissue) growth rate (%) on Day 14 / SJSA-1 (sarcoma tissue) mean tumor volume (mm^3) Day 14: 30 mg/kg once a week for two weeks
Experimental: Test objective: To further compare the antitumor efficacy of different polypeptide Linkers in an animal tumor model of sarcoma SJSA-1.
Test drug: Polypeptide conjugate and normal saline control group.
The control group was administered normal saline. Administration was performed once a week for two weeks.

[4] = MTD determination in mice (Examples 27, 36, 44); assay type: in vivo; details: female, mouse, in vivo, mice, monitored for 14 d; for MTD: read-out: MTD
Description: Test animals: 6-8 weeks old mice, all female; mice were grouped randomly, with six mice in each group, administered with drugs at different concentration gradients separately and monitored for 14 d. A mouse was euthanized at a loss of 20% of its initial weight and deemed to have died of poisoning.

[5] = Tumor homogenate activation efficiency, breast cancer tissue (Examples 28, 37); assay type: in vitro ADME; details: pH 5.0, 37° C., 2 h
How it was run: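 Conjugate at 1 mg/ml in pH 5.0 buffer (50 mM MES, 250 mM NaCl) incubated with 100 μg tissue homogenate at 37° C. for 2 h. HPLC read-out; release % = Belotecan peak area over total area of Belotecan plus all Belotecan-containing species.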

[6] = Tumor homogenate activation efficiency, small cell lung cancer tissue (Example 28); assay type: in vitro ADME; details: pH 5.0, 37° C., 2 h; Table 5
How it was run: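 Polypeptide conjugate at 1 mg/ml in 50 mM MES, 250 mM NaCl, pH 5.0 incubated with 100 μg small cell lung cancer tissue homogenate at 37° C. for 2 h. HPLC quantified Belotecan release as Belotecan peak area over total area of Belotecan plus all Belotecan-containing compounds.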

## CC[C@@]1(O)C(=O)OCC2=C1C=C1c3nc4ccccc4c(CCN(C(=O)OCc4ccc(NC(=O)[C@H](CC(N)=O)NC(=O)[C@H](C)NC(=O)[C@H](C)NC(=O)CCOCCOCCOCCOCCOCCOCCNC(=O)CCN5C(=O)C=CC5=O)cc4)C(C)C)c3CN1C2 [MI-6PEG-AAN-PAB-Belotecan]
A2780 (ovarian cancer); 48 h
  IC50 A2780 (ovarian cancer): 0.34 µg/mL (≈ 0.259 µM)
[1]; 48 h
  IC50 A549 (non-small cell lung cancer): 0.39 µg/mL (≈ 0.297 µM)
SJSA-1 (sarcoma tissue); 48 h
  IC50 SJSA-1 (sarcoma tissue): 0.26 µg/mL (≈ 0.198 µM)
[2]; 48 h
  IC50 SKBR3 (breast cancer tissue): 0.40 µg/mL (≈ 0.305 µM)
[3]
  SJSA-1 (sarcoma tissue) mean tumor volume (mm^3) Day 1: 131.25 mm^3
  SJSA-1 (sarcoma tissue) mean tumor volume (mm^3) Day 4: 208.13 mm^3
  SJSA-1 (sarcoma tissue) mean tumor volume (mm^3) Day 7: 554.02 mm^3
  SJSA-1 (sarcoma tissue) mean tumor volume (mm^3) Day 10: 706.21 mm^3
  Mouse weight (%) on Day 14: −6.9%
  SJSA-1 (sarcoma tissue) growth rate (%) on Day 14: 1005.49%
  SJSA-1 (sarcoma tissue) mean tumor volume (mm^3) Day 14: 1319.7 mm^3
[3]; 30 mg/kg, SJSA-1 model, Example 40
  tumor suppression effect (in words): neither MI-6PEG-AAGP-D2 nor MI-6PEG-AAN-PAB-Belotecan had a satisfactory tumor suppression effect
[4]; Table 15 (Example 44), six per group
  MTD: 100 mg/kg
[4]; Table 4
  MTD: 100 mg/kg
[5]; Table 5
  Percentage of release efficiency (%) Breast cancer tissue (SKBR3): 69.4%
[6]
  Percentage of release efficiency (%) Small cell lung cancer tissue (NCI-H841): 61.5%

## CCCN(CCc1c2c(nc3ccccc13)-c1cc3c(c(=O)n1C2)COC(=O)[C@]3(O)CC)C(=O)[C@H](CC(C)C)NC(=O)[C@H](CC(N)=O)NC(=O)[C@H](C)NC(=O)[C@H](C)NC(=O)CCOCCOCCOCCOCCOCCOCCNC(=O)CCN1C(=O)C=CC1=O [MI-6PEG-AANL-D3] ({Propanoyl(3-maleimido)-PEG6}-AANL-X4)
A2780 (ovarian cancer)
  IC50 Ovarian cancer tissue (A2780): 1.15 µg/mL (≈ 0.892 µM)
[1]
  IC50 Non-small cell lung cancer tissue (A549): 1.87 µg/mL (≈ 1.45 µM)
SJSA-1 (sarcoma tissue)
  IC50 Sarcoma tissue (SJSA-1): 1.52 µg/mL (≈ 1.18 µM)
[2]
  IC50 Breast cancer tissue (SKBR3): 2.56 µg/mL (≈ 1.99 µM)
[3]
  SJSA-1 (sarcoma tissue) mean tumor volume (mm^3) Day 1: 137.17 mm^3
  SJSA-1 (sarcoma tissue) mean tumor volume (mm^3) Day 4: 436.65 mm^3
  SJSA-1 (sarcoma tissue) mean tumor volume (mm^3) Day 7: 735.18 mm^3
  SJSA-1 (sarcoma tissue) mean tumor volume (mm^3) Day 10: 1111.34 mm^3
  Mouse weight (%) on Day 14: +4.2%
  SJSA-1 (sarcoma tissue) growth rate (%) on Day 14: 1316.37%
  SJSA-1 (sarcoma tissue) mean tumor volume (mm^3) Day 14: 1805.67 mm^3
[4]; Table 9
  MTD at 14 d: 200 mg/kg
[5]; Table 10
  Percentage of release efficiency (%) Breast cancer tissue (SKBR3): 67.9%

## CCCCN(CCc1c2c(nc3ccccc13)-c1cc3c(c(=O)n1C2)COC(=O)[C@]3(O)CC)C(=O)[C@H](CC(C)C)NC(=O)[C@H](CC(N)=O)NC(=O)[C@H](C)NC(=O)[C@H](C)NC(=O)CCOCCOCCOCCOCCOCCOCCNC(=O)CCN1C(=O)C=CC1=O [MI-6PEG-AANL-D4] ({Propanoyl(3-maleimido)-PEG6}-AANL-X2)
A2780 (ovarian cancer)
  IC50 Ovarian cancer tissue (A2780): 2.47 µg/mL (≈ 1.89 µM)
[1]
  IC50 Non-small cell lung cancer tissue (A549): 3.72 µg/mL (≈ 2.85 µM)
SJSA-1 (sarcoma tissue)
  IC50 Sarcoma tissue (SJSA-1): 2.94 µg/mL (≈ 2.26 µM)
[2]
  IC50 Breast cancer tissue (SKBR3): 3.94 µg/mL (≈ 3.02 µM)
[3]
  SJSA-1 (sarcoma tissue) mean tumor volume (mm^3) Day 1: 142.01 mm^3
  SJSA-1 (sarcoma tissue) mean tumor volume (mm^3) Day 4: 486.37 mm^3
  SJSA-1 (sarcoma tissue) mean tumor volume (mm^3) Day 7: 739.25 mm^3
  SJSA-1 (sarcoma tissue) mean tumor volume (mm^3) Day 10: 1068.21 mm^3
  Mouse weight (%) on Day 14: +2.3%
  SJSA-1 (sarcoma tissue) growth rate (%) on Day 14: 1137.43%
  SJSA-1 (sarcoma tissue) mean tumor volume (mm^3) Day 14: 1615.26 mm^3
[5]; Table 10
  Percentage of release efficiency (%) Breast cancer tissue (SKBR3): 75.3%

## CC[C@@]1(O)C(=O)OCc2c1cc1n(c2=O)Cc2c-1nc1ccccc1c2CCN(CC(C)C)C(=O)[C@H](CC(C)C)NC(=O)[C@H](CC(N)=O)NC(=O)[C@H](C)NC(=O)[C@H](C)NC(=O)CCOCCOCCOCCOCCOCCOCCNC(=O)CCN1C(=O)C=CC1=O [MI-6PEG-AANL-D5] ({Propanoyl(3-maleimido)-PEG6}-AANL-X5)
A2780 (ovarian cancer)
  IC50 Ovarian cancer tissue (A2780): 1.13 µg/mL (≈ 0.867 µM)
[1]
  IC50 Non-small cell lung cancer tissue (A549): 1.34 µg/mL (≈ 1.03 µM)
SJSA-1 (sarcoma tissue)
  IC50 Sarcoma tissue (SJSA-1): 1.58 µg/mL (≈ 1.21 µM)
[2]
  IC50 Breast cancer tissue (SKBR3): 2.20 µg/mL (≈ 1.69 µM)
[3]
  SJSA-1 (sarcoma tissue) mean tumor volume (mm^3) Day 1: 139.89 mm^3
  SJSA-1 (sarcoma tissue) mean tumor volume (mm^3) Day 4: 429.56 mm^3
  SJSA-1 (sarcoma tissue) mean tumor volume (mm^3) Day 7: 658.17 mm^3
  SJSA-1 (sarcoma tissue) mean tumor volume (mm^3) Day 10: 876.45 mm^3
  Mouse weight (%) on Day 14: −1.1%
  SJSA-1 (sarcoma tissue) growth rate (%) on Day 14: 979.44%
  SJSA-1 (sarcoma tissue) mean tumor volume (mm^3) Day 14: 1370.14 mm^3
[5]; Table 10
  Percentage of release efficiency (%) Breast cancer tissue (SKBR3): 70.2%
